These are literature values, as cited in patent publication US9486463B2, “Chemosensory receptor ligand-based therapies” (AMBRA BIOSCIENCE LLC, priority 2010, dated 2016).

Data set [1] concerns humans.
The subject of data set [2] is patients with jejunostomy.
The target of a further data set is T1, sweet receptor (Homo sapiens, UniProt Q7RTX0+Q8TE23).
T1 sequence (Q8TE23 20-839): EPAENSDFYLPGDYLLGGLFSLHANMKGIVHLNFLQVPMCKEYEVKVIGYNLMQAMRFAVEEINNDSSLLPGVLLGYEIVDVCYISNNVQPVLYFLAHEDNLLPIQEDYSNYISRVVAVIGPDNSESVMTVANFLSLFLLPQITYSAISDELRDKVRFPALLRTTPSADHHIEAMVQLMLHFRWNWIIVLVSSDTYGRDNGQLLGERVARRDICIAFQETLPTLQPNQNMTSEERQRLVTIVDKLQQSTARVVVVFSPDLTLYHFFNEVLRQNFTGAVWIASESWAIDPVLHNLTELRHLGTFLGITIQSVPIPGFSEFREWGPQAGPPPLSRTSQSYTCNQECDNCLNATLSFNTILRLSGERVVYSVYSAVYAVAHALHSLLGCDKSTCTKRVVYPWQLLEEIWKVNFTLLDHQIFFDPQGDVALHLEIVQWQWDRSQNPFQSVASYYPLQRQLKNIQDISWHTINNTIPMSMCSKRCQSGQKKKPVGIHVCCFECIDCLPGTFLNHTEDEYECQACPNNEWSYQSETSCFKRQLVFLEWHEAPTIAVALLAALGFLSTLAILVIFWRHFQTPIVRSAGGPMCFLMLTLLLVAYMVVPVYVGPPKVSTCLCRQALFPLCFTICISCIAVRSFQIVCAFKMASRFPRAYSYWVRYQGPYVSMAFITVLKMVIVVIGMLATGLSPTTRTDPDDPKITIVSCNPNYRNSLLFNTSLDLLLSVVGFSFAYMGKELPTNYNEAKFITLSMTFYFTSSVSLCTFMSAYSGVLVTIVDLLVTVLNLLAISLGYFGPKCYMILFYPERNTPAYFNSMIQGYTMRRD
T1 sequence (Q7RTX0 21-852): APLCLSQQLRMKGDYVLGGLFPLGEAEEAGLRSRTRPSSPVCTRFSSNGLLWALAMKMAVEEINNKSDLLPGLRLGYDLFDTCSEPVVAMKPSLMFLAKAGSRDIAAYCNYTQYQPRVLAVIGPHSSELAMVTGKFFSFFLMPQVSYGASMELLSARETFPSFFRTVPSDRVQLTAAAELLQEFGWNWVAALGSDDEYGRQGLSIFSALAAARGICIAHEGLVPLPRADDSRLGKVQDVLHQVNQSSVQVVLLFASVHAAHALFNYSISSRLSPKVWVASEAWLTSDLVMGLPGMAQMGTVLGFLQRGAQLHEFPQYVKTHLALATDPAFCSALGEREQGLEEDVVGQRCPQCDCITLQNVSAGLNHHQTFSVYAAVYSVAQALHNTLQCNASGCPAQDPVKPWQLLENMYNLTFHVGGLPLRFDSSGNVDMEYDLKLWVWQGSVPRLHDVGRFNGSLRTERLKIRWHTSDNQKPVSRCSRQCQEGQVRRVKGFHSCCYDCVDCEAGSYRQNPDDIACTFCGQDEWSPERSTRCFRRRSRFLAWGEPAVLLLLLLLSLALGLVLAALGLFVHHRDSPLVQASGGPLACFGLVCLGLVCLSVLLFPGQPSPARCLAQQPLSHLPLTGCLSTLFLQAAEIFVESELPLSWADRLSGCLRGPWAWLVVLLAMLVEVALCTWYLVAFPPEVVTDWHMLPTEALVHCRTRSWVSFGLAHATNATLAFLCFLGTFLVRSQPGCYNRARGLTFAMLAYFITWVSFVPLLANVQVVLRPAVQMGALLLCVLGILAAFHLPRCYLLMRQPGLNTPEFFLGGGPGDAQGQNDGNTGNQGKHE
The settings on record: relative sweetness on a weight comparison basis to sucrose (=1.0).

Data set [3] concerns humans. The source holds these as a separate data set.
The subject of data set [4] is rats.
The test system of data set [5] is rats. The source holds these as a separate data set.
Data set [6] concerns humans. The conditions noted are these: instillation into the duodenum of humans.
Data set [7] concerns rats. This is another data set of the same source.

Consider `C=C1C[C@@]23CC[C@H]4[C@@](C)(CCC[C@@]4(C)C(=O)O[C@@H]4O[C@H](CO)[C@@H](O)[C@H](O)[C@H]4O)[C@@H]2CC[C@]1(O[C@@H]1O[C@H](CO)[C@@H](O)[C@H](O[C@@H]2O[C@H](CO)[C@@H](O)[C@H](O)[C@H]2O)[C@H]1O[C@@H]1O[C@H](CO)[C@@H](O)[C@H](O)[C@H]1O)C3` [Rebaudioside A (4), Rebaudioside A], for which the “Gut hormones in the circulation” value in the data set with humans [1] is recorded as “no alterations”.

Turning to “GLP-2: gut hormone administered in patients with jejunostomy (HADGSFSDEMNTILDNLAARDFINWLIQTKITD; Glucagon-like peptide 2; UniProt P01275 146-178, looked up)”, in data set [2], the “Gastric emptying of solids and liquids” value is given as “prolong”; the “Intestinal absorption of energy and intestinal wet weight absorption” value was “improve”.

Regarding `C=C(C)C1CC=C(/C=N/O)CC1` (centres unmarked) [Perillartine (10), Perillartine], the Sweetness/potency at sweet receptor is recorded as 370.

Turning to `OCCN1C[C@H](O)[C@@H](O)[C@H](O)[C@H]1CO` [miglitol], in the data set with humans [3], the “Post-prandial GLP-1 levels” value is “increase”. For the same compound, the “Increase in GLP-1, interaction with administration of a DPP-IV inhibitor” value with rats [4] is “synergistic”.

For `OC[C@H]1O[C@H](O[C@]2(CCl)O[C@H](CCl)[C@@H](O)[C@@H]2O)[C@H](O)[C@@H](O)[C@H]1Cl` [sucralose], the Gut hormone release entry with rats [5] and in the data set with humans [6] was “no effect” in each case.

On to `N[C@@H](CCC(=O)O)C(=O)O` [glutamate], for which, in the data set on rats [7], the Abdominal fat result is “reduced abdominal fat” and the Weight gain entry is recorded as “decreased weight gain”.

Regarding Dulcoside A [Dulcoside A (15)], the Sweetness/potency at sweet receptor is given as 30.
